The values that follow are results of earlier work, collected in PMC7692329, “Inhibitory Effect of AB-PINACA, Indazole Carboxamide Synthetic Cannabinoid, on Human Major Drug-Metabolizing Enzymes and Transporters” (Pharmaceutics, 2020).

SMILES strings stand for the structures. Like-named read-outs stand apart in the source and are kept apart here.

For one data set, the system named is CYP2C8. As to conditions: cited from earlier work.
The subject of another data set is CYP2D6. As to conditions: read-out: Ki, CYP2D6; cited from earlier work.
The subject of the next data set is CYP2C19. As to conditions: cited from earlier work.
The next data set concerns CYP2B6. The conditions noted are these: read-out: Ki, CYP2B6; cited from earlier work.
The subject of the next data set is CYP3A4. As to conditions: cited from earlier work.
In the next data set the test system is CYP2C9. The conditions noted are these: cited from earlier work.
For data set [1] the following is noted: child, chewing an AB-PINACA contaminated cigarette; cited from earlier work.
For another data set, the system named is UGT2B7. More on the design: method as in PMID 28287454. As to conditions: cited from earlier work.
The subject of another data set is UGT1A3. The conditions noted are these: cited from earlier work.
Data set [2] has as its system OCT1/2, OAT1/3, and OATP1B1/1B3. On the set-up: method as in PMID 31430908. As to conditions: cited from earlier work.
A further data set has as its system UGT1A9. As to conditions: read-out: Ki, UGT1A9; noncompetitive inhibition; cited from earlier work.
The test system of another data set is CES1. On the set-up: method as in PMID 25346527. The conditions noted are these: 100 μM benzil, human liver microsomes; cited from earlier work. For orientation: Liver microsomes are a subcellular fraction often used to study metabolism.
[3] abbreviates: read-out: Ki, CYP3A4 (time-dependent), time-dependent inhibition.

For `CC(C)C(NC(=O)c1nn(Cc2ccc(F)cc2)c2ccccc12)C(N)=O` (stereo not shown) [AB-FUBINACA, N-(1-amino-3-methyl-1-oxobutan-2-yl)-1-(4-fluorobenzyl)-1H-indazole-3-carboxamide], the Ki was 19.9 µM in the data set with CYP2C8 (read-out: Ki, CYP2C8); 20.8 µM with CYP2D6; 6.3 µM with CYP2C19 (read-out: Ki, CYP2C19); 15 µM in the data set with CYP2B6; 13.1 µM in the data set on CYP2C9 (read-out: Ki, CYP2C9). Besides, in the data set with CYP3A4, the “inhibition of CYP3A4” value is given as “did not inhibited”.

In the case of `CC(C)C(NC(=O)c1nn(CCCCC(=O)O)c2ccccc12)C(N)=O` (stereo not shown) [AB-PINACA pentanoic acid], the serum level in [1] is recorded as 345 ng/mL.

For the compound `O=C(c1cccc2ccccc12)c1cn(CCCCCF)c2ccccc12` [AM-2201], the IC50 is 10 µM with UGT2B7; 4.3 µM with UGT1A3; 4 µM in the data set on CYP3A4 (read-out: IC50, CYP3A4); 3.9 µM with CYP2C9 (read-out: IC50, CYP2C9).

Take `CCCCCn1nc(C(=O)NC23CC4CC(CC(C4)C2)C3)c2ccccc21` [APINACA, N-(1-adamantyl)-1-pentyl-1H-indazole-3-carboxamide]: the “inhibition of transport activity of OCT1/2, OAT1/3, and OATP1B1/1B3” value in data set [2] is “did not inhibit”. Besides, the Ki in the data set with CYP3A4 (setting [3]) was 4.5 µM. Also, in the data set with CYP3A4 (time-dependent inhibition), the “kinact, CYP3A4” value was 0.04686 min⁻¹ and the “kinact/Ki, CYP3A4” value was 172 M⁻¹ s⁻¹. For the same compound, the Ki in the data set with UGT1A9 was 5.9 µM.

Take `CCc1ccc(C(=O)c2cn(CCCCCF)c3ccccc23)c2ccccc12` [EAM-2201]: the Ki in the data set on CYP2C8 (read-out: Ki, CYP2C8 (time-dependent), time-dependent inhibition) was 0.54 µM; in the data set on CYP2C19 (read-out: Ki, CYP2C19 (time-dependent), time-dependent inhibition), 3.8 µM; in the data set on UGT1A3 (competitive inhibition) it was 2.4 µM; with CYP3A4 (setting [3]), 4.1 µM; with CYP2C9 (read-out: Ki, CYP2C9 (time-dependent), time-dependent inhibition), 3 µM. Moreover, in the data set with CYP2C8 (time-dependent inhibition), the “kinact, CYP2C8” value is 0.0633 min⁻¹. Further, the “kinact, CYP2C19” value in the data set on CYP2C19 (time-dependent inhibition) was 0.0264 min⁻¹. The “kinact, CYP3A4” value with CYP3A4 (time-dependent inhibition) was 0.0250 min⁻¹. In the data set with CYP3A4 (time-dependent inhibition), the “kinact/Ki, CYP3A4” value was 115 M⁻¹ s⁻¹. For the same compound, in the data set with CYP2C9 (time-dependent inhibition), the “kinact, CYP2C9” value is 0.0462 min⁻¹.

`Cc1ccc(C(=O)c2cn(CCCCCF)c3ccccc23)c2ccccc12` [MAM-2201]: the Ki in the data set on UGT1A3 was 5 µM; in the data set on CYP3A4 (read-out: Ki, CYP3A4), 5.4 µM; with CYP2C9 (read-out: Ki, CYP2C9), 5.6 µM.

For `O=C(C(=O)c1ccccc1)c1ccccc1` [benzil], in the data set on CES1, the “effect on formation of AB-PINACA carboxylic acid” value was “abolished”.

Regarding `CC[C@H]1OC(=O)[C@H](C)[C@@H](O[C@H]2C[C@@](C)(OC)[C@@H](O)[C@H](C)O2)[C@H](C)[C@@H](O[C@@H]2O[C@H](C)C[C@H](N(C)C)[C@H]2O)[C@](C)(OC)C[C@@H](C)C(=O)[C@H](C)[C@@H](O)[C@]1(C)O` [clarithromycin], the “inactivation efficiency (kinact/Ki), CYP3A4” value in the data set with CYP3A4 (representative clinical CYP3A4-mediated drug interactions) was 46.7 M⁻¹ s⁻¹.

In general, IC50 refers to the point on the concentration scale where inhibition reaches its midpoint.
